This data set in a line: recombinant UMI read abundance after kanamycin selection (control-corrected) (log10(CPM+1)); higher = more efficient recombination; extreme values may be limits of the assay; sequences stand for … in AGTGCAGAGAAAATCGGCCAGTTTTCTCTGCCTGCAGTCCGCATGCCGTGGGACCCCTTGGGTTCTAACCTGTTGCCTAGATTTATGCAGCGGACTGCCTTTCTCCCAAAGTGATAAACCGG…AGGTTGGTTTCACT; site = the 11-nt donor. An outline of the steps:
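For the IS621 bridge recombinase, a pooled Escherichia coli screen tested donor and donor-binding-loop pairs. Cells received the pair library together with a target plasmid encoding a fixed target and T7-inducible recombinase, then went onto IPTG (0.07 mM) plus kanamycin or unselected plates in duplicate. After PCR across the donor–target junction and sequencing, recombinant UMI counts were normalized to CPM, averaged, and scaled by control-derived factors. Each value is given as log10(CPM+1).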
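Note: IS621 bridge recombinase in Escherichia coli cells against a fixed T5 target plasmid.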

As to “GTTAGATCATGGACCGGTTTTCCCGGTAATCCGTATTTGGC (site GTTAGAACTGC)”, the “recombinant UMI read abundance (log10)” value was 0.

In the case of “GTTAGATCATGGACCGGTTTTCCCGGTAATCCGTATTTGGC (site GTTAGACCTGC)”, the “recombinant UMI read abundance (log10)” value was 0.

Regarding “GTTAGATCATGGACCGGTTTTCCCGGTAATCCGTATTTGGC (site GTTAGAGCTGC)”, the “recombinant UMI read abundance (log10)” value came out at 0.

“GTTAGATCATGGACCGGTTTTCCCGGTAATCCGTATTTGGC (site GTTAGATCTGC)”: the “recombinant UMI read abundance (log10)” value came out at 1.92.

For “GTTATAACATGGACCGGTTTTCCCGGTAATCCGTATTTGGC (site GTTAAAACTGC)”, the “recombinant UMI read abundance (log10)” value is 0.

Turning to “GTTATAACATGGACCGGTTTTCCCGGTAATCCGTATTTGGC (site GTTACAACTGC)”, the “recombinant UMI read abundance (log10)” value is 0.

Regarding “GTTATAACATGGACCGGTTTTCCCGGTAATCCGTATTTGGC (site GTTAGAACTGC)”, the “recombinant UMI read abundance (log10)” value was found to be 0.

In the case of “GTTATAACATGGACCGGTTTTCCCGGTAATCCGTATTTGGC (site GTTATAACTGC)”, the “recombinant UMI read abundance (log10)” value was determined as 1.28.

Turning to “GTTATTGCATGGACCGGTTTTCCCGGTAATCCGTATTTGAT (site GTTATTGCTAT)”, the “recombinant UMI read abundance (log10)” value amounted to 1.79.

With “GTTCCAGCATGGACCGGTTTTCCCGGTAATCCGTATTTGCA (site GTTCAAGCTTG)”, the “recombinant UMI read abundance (log10)” value came out at 0.

“GTTCCAGCATGGACCGGTTTTCCCGGTAATCCGTATTTGCA (site GTTCCAGCTTG)”: the “recombinant UMI read abundance (log10)” value worked out at 1.64.

“GTTCCAGCATGGACCGGTTTTCCCGGTAATCCGTATTTGCA (site GTTCGAGCTTG)”: the “recombinant UMI read abundance (log10)” value is 0.

On to “GTTCCAGCATGGACCGGTTTTCCCGGTAATCCGTATTTGCA (site GTTCTAGCTTG)”, for which the “recombinant UMI read abundance (log10)” value was 0.

With “GTTCCAGCATGGACCGGTTTTCCCGGTAATCCGTATTTGCT (site GTTCCAGCTAG)”, the “recombinant UMI read abundance (log10)” value was 1.06.

For the sequence “GTTCGAACATGGACCGGTTTTCCCGGTAATCCGTATTTGCA (site GTTCGAACTTG)”, the “recombinant UMI read abundance (log10)” value is 0.418.

Regarding “GTTCGAACATGGACCGGTTTTCCCGGTAATCCGTATTTGCA (site GTTCGACCTTG)”, the “recombinant UMI read abundance (log10)” value was 0.

As for “GTTCGAACATGGACCGGTTTTCCCGGTAATCCGTATTTGCA (site GTTCGAGCTTG)”, the “recombinant UMI read abundance (log10)” value came out at 0.00306.

For “GTTCGAACATGGACCGGTTTTCCCGGTAATCCGTATTTGCA (site GTTCGATCTTG)”, the “recombinant UMI read abundance (log10)” value was found to be 0.448.

With “GTTCGACCATGGACCGGTTTTCCCGGTAATCCGTATTTGCA (site GTTCGAACTTG)”, the “recombinant UMI read abundance (log10)” value stood at 0.

Turning to “GTTCGACCATGGACCGGTTTTCCCGGTAATCCGTATTTGCA (site GTTCGACCTTG)”, the “recombinant UMI read abundance (log10)” value was found to be 0.

Take “GTTCGACCATGGACCGGTTTTCCCGGTAATCCGTATTTGCA (site GTTCGAGCTTG)”: the “recombinant UMI read abundance (log10)” value is 0.

“GTTCGACCATGGACCGGTTTTCCCGGTAATCCGTATTTGCA (site GTTCGATCTTG)”: the “recombinant UMI read abundance (log10)” value was determined as 0.

In the case of “GTTCGCGCATGGACCGGTTTTCCCGGTAATCCGTATTTGCA (site GTTCGAGCTTG)”, the “recombinant UMI read abundance (log10)” value was 0.394.

Regarding “GTTCGCGCATGGACCGGTTTTCCCGGTAATCCGTATTTGCA (site GTTCGCGCTTG)”, the “recombinant UMI read abundance (log10)” value came to 2.03.

As to “GTTCGCGCATGGACCGGTTTTCCCGGTAATCCGTATTTGCA (site GTTCGGGCTTG)”, the “recombinant UMI read abundance (log10)” value came to 0.

With “GTTCGCGCATGGACCGGTTTTCCCGGTAATCCGTATTTGCA (site GTTCGTGCTTG)”, the “recombinant UMI read abundance (log10)” value was 0.00559.

“GTTCGGGCATGGACCGGTTTTCCCGGTAATCCGTATTTGCA (site GTTCGAGCTTG)”: the “recombinant UMI read abundance (log10)” value worked out at 1.27.

As for “GTTCGGGCATGGACCGGTTTTCCCGGTAATCCGTATTTGCA (site GTTCGCGCTTG)”, the “recombinant UMI read abundance (log10)” value was 0.

With “GTTCGGGCATGGACCGGTTTTCCCGGTAATCCGTATTTGCA (site GTTCGGGCTTG)”, the “recombinant UMI read abundance (log10)” value stood at 2.23.

For “GTTCGGGCATGGACCGGTTTTCCCGGTAATCCGTATTTGCA (site GTTCGTGCTTG)”, the “recombinant UMI read abundance (log10)” value is 0.33.

In the case of “GTTCGTACATGGACCGGTTTTCCCGGTAATCCGTATTTGAC (site GTTCGTACTGT)”, the “recombinant UMI read abundance (log10)” value came out at 1.54.

On to “GTTCGTACATGGACCGGTTTTCCCGGTAATCCGTATTTGGG (site GTTCGTACTCC)”, for which the “recombinant UMI read abundance (log10)” value stood at 0.0129.

“GTTCTATCATGGACCGGTTTTCCCGGTAATCCGTATTTGGT (site GTTCTATCTAC)”: the “recombinant UMI read abundance (log10)” value was 0.

In the case of “GTTCTTCCATGGACCGGTTTTCCCGGTAATCCGTATTTGGT (site GTTATTCCTAC)”, the “recombinant UMI read abundance (log10)” value came out at 0.00339.

For the sequence “GTTCTTCCATGGACCGGTTTTCCCGGTAATCCGTATTTGGT (site GTTCTTCCTAC)”, the “recombinant UMI read abundance (log10)” value turned out to be 0.00538.

As for “GTTCTTCCATGGACCGGTTTTCCCGGTAATCCGTATTTGGT (site GTTGTTCCTAC)”, the “recombinant UMI read abundance (log10)” value turned out to be 0.0119.

Take “GTTCTTCCATGGACCGGTTTTCCCGGTAATCCGTATTTGGT (site GTTTTTCCTAC)”: the “recombinant UMI read abundance (log10)” value was 0.

With “GTTGAGACATGGACCGGTTTTCCCGGTAATCCGTATTTGGT (site ATTGAGACTAC)”, the “recombinant UMI read abundance (log10)” value came to 0.953.

Take “GTTGAGACATGGACCGGTTTTCCCGGTAATCCGTATTTGGT (site CTTGAGACTAC)”: the “recombinant UMI read abundance (log10)” value is 0.883.

Turning to “GTTGAGACATGGACCGGTTTTCCCGGTAATCCGTATTTGGT (site GTTGAGACTAC)”, the “recombinant UMI read abundance (log10)” value amounted to 0.775.

As for “GTTGAGACATGGACCGGTTTTCCCGGTAATCCGTATTTGGT (site TTTGAGACTAC)”, the “recombinant UMI read abundance (log10)” value was determined as 0.683.

For the sequence “GTTGATGCATGGACCGGTTTTCCCGGTAATCCGTATTTGAC (site GTTGATGCTGT)”, the “recombinant UMI read abundance (log10)” value is 2.12.

Take “GTTGCGTCATGGACCGGTTTTCCCGGTAATCCGTATTTGGC (site GTTGCGTCTGC)”: the “recombinant UMI read abundance (log10)” value was determined as 2.41.

“GTTGCGTCATGGACCGGTTTTCCCGGTAATCCGTATTTGGT (site GTTGCGTCTAC)”: the “recombinant UMI read abundance (log10)” value stood at 0.923.

As for “GTTGTATCATGGACCGGTTTTCCCGGTAATCCGTATTTGAC (site CTAGTATCTGT)”, the “recombinant UMI read abundance (log10)” value stood at 1.45.

Take “GTTGTATCATGGACCGGTTTTCCCGGTAATCCGTATTTGAC (site GTTGTATCTGT)”: the “recombinant UMI read abundance (log10)” value is 2.18.

“GTTGTCCCATGGACCGGTTTTCCCGGTAATCCGTATTTGGT (site GTTGTACCTAC)”: the “recombinant UMI read abundance (log10)” value worked out at 0.00965.

As to “GTTGTCCCATGGACCGGTTTTCCCGGTAATCCGTATTTGGT (site GTTGTCCCTAC)”, the “recombinant UMI read abundance (log10)” value was determined as 0.0143.

In the case of “GTTGTCCCATGGACCGGTTTTCCCGGTAATCCGTATTTGGT (site GTTGTGCCTAC)”, the “recombinant UMI read abundance (log10)” value was 0.0145.

Take “GTTGTCCCATGGACCGGTTTTCCCGGTAATCCGTATTTGGT (site GTTGTTCCTAC)”: the “recombinant UMI read abundance (log10)” value was 0.

Regarding “GTTGTCGCATGGACCGGTTTTCCCGGTAATCCGTATTTGCG (site GTAGTCGCTCG)”, the “recombinant UMI read abundance (log10)” value worked out at 0.0153.

For the sequence “GTTGTCGCATGGACCGGTTTTCCCGGTAATCCGTATTTGCG (site GTCGTCGCTCG)”, the “recombinant UMI read abundance (log10)” value was found to be 0.00886.

Take “GTTGTCGCATGGACCGGTTTTCCCGGTAATCCGTATTTGCG (site GTGGTCGCTCG)”: the “recombinant UMI read abundance (log10)” value is 0.009.

“GTTGTCGCATGGACCGGTTTTCCCGGTAATCCGTATTTGCG (site GTTGTCGCTCG)”: the “recombinant UMI read abundance (log10)” value turned out to be 0.974.

For “GTTGTTACATGGACCGGTTTTCCCGGTAATCCGTATTTGGT (site GTTGTTACTAC)”, the “recombinant UMI read abundance (log10)” value turned out to be 1.07.

Consider “GTTGTTACATGGACCGGTTTTCCCGGTAATCCGTATTTGGT (site GTTGTTCCTAC)”, for which the “recombinant UMI read abundance (log10)” value was determined as 0.

In the case of “GTTGTTACATGGACCGGTTTTCCCGGTAATCCGTATTTGGT (site GTTGTTGCTAC)”, the “recombinant UMI read abundance (log10)” value was 0.0188.

With “GTTGTTACATGGACCGGTTTTCCCGGTAATCCGTATTTGGT (site GTTGTTTCTAC)”, the “recombinant UMI read abundance (log10)” value was 0.

For “GTTGTTCCATGGACCGGTTTTCCCGGTAATCCGTATTTGAT (site GTTGTTCCTAA)”, the “recombinant UMI read abundance (log10)” value turned out to be 0.0147.

For “GTTGTTCCATGGACCGGTTTTCCCGGTAATCCGTATTTGAT (site GTTGTTCCTAC)”, the “recombinant UMI read abundance (log10)” value stood at 0.00806.

In the case of “GTTGTTCCATGGACCGGTTTTCCCGGTAATCCGTATTTGAT (site GTTGTTCCTAG)”, the “recombinant UMI read abundance (log10)” value worked out at 0.

Consider “GTTGTTCCATGGACCGGTTTTCCCGGTAATCCGTATTTGAT (site GTTGTTCCTAT)”, for which the “recombinant UMI read abundance (log10)” value was determined as 0.00518.

Turning to “GTTGTTCCATGGACCGGTTTTCCCGGTAATCCGTATTTGCT (site GTTGTTCCTAA)”, the “recombinant UMI read abundance (log10)” value turned out to be 0.0109.

With “GTTGTTCCATGGACCGGTTTTCCCGGTAATCCGTATTTGCT (site GTTGTTCCTAC)”, the “recombinant UMI read abundance (log10)” value worked out at 0.0126.

For the sequence “GTTGTTCCATGGACCGGTTTTCCCGGTAATCCGTATTTGCT (site GTTGTTCCTAG)”, the “recombinant UMI read abundance (log10)” value is 0.

For “GTTGTTCCATGGACCGGTTTTCCCGGTAATCCGTATTTGCT (site GTTGTTCCTAT)”, the “recombinant UMI read abundance (log10)” value stood at 0.00476.

Take “GTTGTTCCATGGACCGGTTTTCCCGGTAATCCGTATTTGGC (site GTTGTTCCTAC)”: the “recombinant UMI read abundance (log10)” value amounted to 0.00298.

As to “GTTGTTCCATGGACCGGTTTTCCCGGTAATCCGTATTTGGC (site GTTGTTCCTCC)”, the “recombinant UMI read abundance (log10)” value worked out at 0.0108.

The record behind these values is the supplement of paper PMC11208160.
